Experimental data: PubChem BioAssay (NCI)
Values joined by “and” are separate entries in the source; they are usually repeats but may differ in a detail not shown here. Identical values can stand only once.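 Briefly, cells in 96-well plates were exposed to five compound concentrations for 48 h, and endpoints were estimated by linear interpolation. GI50 marks 50% less growth. TGI marks complete inhibition of growth.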

Legend:
Assay in all cases: NCI tumour cell line growth inhibition, 48 h
[1] = system: XF 498 CNS
[2] = system: MDA-N
[3] = system: DLD-1 colon
[4] = system: LXFL 529 NSCLC
[5] = system: DMS 273 small cell lung
[6] = system: DMS 114 small cell lung
[7] = system: RXF-631 renal
[8] = system: SNB-78 CNS
[9] = system: SN12K1 renal
[10] = system: P388/ADR leukemia
[11] = system: HOP-18 NSCLC

With `Cc1cc(NC(=O)NC(=O)c2ccccc2NC(=O)CN)ccc1Oc1ncc(Br)cn1` the TGI [1] was 75 µM, the GI50 [2] was 0.0271 µM and the TGI [2] was 1.1 µM and 0.178 µM. The TGI [3] was 4.62 µM, the TGI [4] was 75 µM and the TGI [5] was 38.1 µM. It also gave a TGI [6] of 75 µM.

`CC(=O)O[C@H]1CC[C@@]2(C)C(=CC[C@@H]3C2CC[C@]2(C)Nc4[nH]ncc4CC32)C1` (some centres undefined) showed a TGI [1] of 34.2 µM, a TGI [3] of 93.8 µM and a TGI [4] of 36.4 µM. It also gave a TGI [5] of 31.8 µM, a TGI [7] of 34.7 µM and a TGI [8] greater than 100 µM. For the same molecule, the TGI [6] was 34.2 µM.

`COC(=O)[C@]12CC=C3O[C@@H]4OC5(CCCCC5)O[C@@H]4[C@H]3C1C(=O)C=CC2=O` (some centres undefined) showed a TGI [1] of 20 µM, a TGI [2] of 33.6 µM and a TGI [9] of 31.4 µM. For the same molecule, the TGI [3] was 29.9 µM, the TGI [10] was 10.5 µM and the TGI [4] was 23.8 µM. The TGI [5] was 34.3 µM, the TGI [11] was 32.6 µM and the TGI [8] was 37.2 µM. It also gave a TGI [6] of 33.7 µM.

In the case of `COc1cc2c(c(OC)c1OC)-c1ccc(SC)c(=O)cc1C(CC(=O)Oc1cccc(C#N)c1)C2` (centres undefined), the TGI [1] is reported as 2.23 µM, the TGI [3] is reported as greater than 100 µM and the TGI [4] is reported as greater than 100 µM. It also gave a TGI [5] greater than 100 µM, a TGI [11] greater than 100 µM and a TGI [8] greater than 100 µM.

In the case of `NC1=C(Cl)C(=O)c2ccccc2C1=O`, the TGI [1] is reported as 24.5 µM, the TGI [2] is reported as 3.19 µM and the TGI [3] is reported as 37.9 µM. For the same molecule, the TGI [4] was 25.2 µM, the TGI [5] was 18.9 µM and the TGI [11] was 22 µM. It also gave a TGI [8] greater than 63.3 µM and a TGI [6] of 13.4 µM.

`COc1ccc2c(c1)CCCC1C3=NCCC3(C)CSC21` (centres undefined) showed a TGI [1] greater than 100 µM, a TGI [4] greater than 100 µM and a TGI [5] greater than 100 µM. For the same molecule, the TGI [11] was greater than 100 µM, the TGI [8] was greater than 100 µM and the TGI [6] was greater than 100 µM.

Molecule `CCOC(=O)c1cnc2cc3cccccc3n2c1=O` has a TGI [3] greater than 100 µM, a TGI [4] greater than 100 µM and a TGI [5] greater than 100 µM. For the same molecule, the TGI [8] was greater than 100 µM and the TGI [6] was greater than 100 µM.

`CO/C(=N\N=C\c1cccc(C(F)(F)F)c1)c1ccncc1` was tested, and the GI50 [2] was 3.25 µM and the TGI [2] was 5.17 µM and 32.5 µM.

Work on `CCCCCCCCCCCCCCCCn1cc[n+](Cc2ccccc2)c1C` yielded a GI50 [2] of 0.328 µM and a TGI [2] of 1.32 µM.

`O=C(O)CCCNS(=O)(=O)c1ccc2ccccc2c1` gave a TGI [1] greater than 100 µM, a TGI [3] greater than 100 µM and a TGI [4] greater than 100 µM. It also gave a TGI [5] greater than 100 µM, a TGI [7] greater than 100 µM and a TGI [11] greater than 100 µM.

For `COc1ccc(C(=O)CC(c2ccc(OC)c(OC)c2)c2c(O)c3ccccc3oc2=O)cc1OC` (centres undefined), the TGI [2] was greater than 100 µM.

With `O=CN1CCN(C=S)CC1` the TGI [1] was greater than 100 µM, the TGI [3] was greater than 100 µM and the TGI [4] was greater than 100 µM. The TGI [5] was greater than 100 µM, the TGI [7] was greater than 100 µM and the TGI [8] was greater than 100 µM. The TGI [6] was greater than 100 µM.

In the case of `CCOC(=O)/C(=C\c1ccc(F)cc1)C(C)=O`, the TGI [2] is reported as greater than 100 µM.

Work on `COc1ccc(C(O)/C(=C/n2ccnc2)c2ccccc2)cc1OC` (centres undefined) yielded a TGI [1] greater than 100 µM, a TGI [3] greater than 100 µM and a TGI [5] greater than 100 µM. The TGI [7] was greater than 100 µM, the TGI [11] was greater than 100 µM and the TGI [6] was greater than 100 µM.

Work on `CN(CCN(C)C(=O)CCOS(C)(=O)=O)C(=O)CCOS(C)(=O)=O` yielded a TGI [1] greater than 100 µM, a TGI [3] greater than 100 µM and a TGI [4] greater than 100 µM. It also gave a TGI [5] greater than 100 µM, a TGI [11] greater than 100 µM and a TGI [8] greater than 100 µM. It also gave a TGI [6] greater than 100 µM.

`CN1CCC(n2[nH]c(-c3ccccc3)c(Cc3ccccc3)c2=O)CC1` gave a TGI [2] greater than 100 µM.

With `c1cncc(CNc2ncn[nH]2)c1` the TGI [2] was greater than 100 µM.

Work on `NC(=O)c1c2c(cc3c(=O)c4ccccc4[nH]c13)CCCC2` yielded a TGI [1] greater than 100 µM, a TGI [3] greater than 100 µM and a TGI [4] greater than 100 µM. It also gave a TGI [5] greater than 100 µM, a TGI [7] greater than 100 µM and a TGI [11] greater than 100 µM. For the same molecule, the TGI [6] was greater than 100 µM.

For `Cc1c(O)c(=O)ccn1CCO`, the TGI [1] was greater than 100 µM, the TGI [3] was greater than 100 µM and the TGI [4] was greater than 100 µM. It also gave a TGI [11] greater than 100 µM, a TGI [8] greater than 100 µM and a TGI [6] greater than 100 µM.

Molecule `CC1=CC2CC(C)C1(C)CCc1ccoc12` (centres undefined) has a TGI [1] greater than 100 µM, a TGI [3] greater than 100 µM and a TGI [4] greater than 100 µM. It also gave a TGI [5] greater than 100 µM, a TGI [7] greater than 100 µM and a TGI [11] greater than 100 µM. The TGI [8] was greater than 100 µM and the TGI [6] was greater than 100 µM.

`CCOC(=O)C(=O)Nc1ccc(Cl)c(C(F)(F)F)c1` was tested, and the TGI [3] was greater than 100 µM, the TGI [4] was greater than 100 µM and the TGI [5] was greater than 100 µM. It also gave a TGI [7] greater than 100 µM, a TGI [11] greater than 100 µM and a TGI [8] greater than 100 µM. For the same molecule, the TGI [6] was greater than 100 µM.

In the case of `CC(=O)OC12CC(C)C3(O)C4C=C(C)C(=O)[C@@]4(O)CC(CO)=C[C@H]3C1C2(C)C` (some centres undefined), the GI50 [2] is reported as 0.239 µM.

Work on `Cn1c(=O)oc2cc(C3CCC(=O)N3Cc3ccc(Cl)cc3)ccc21` (centres undefined) yielded a TGI [1] greater than 100 µM, a TGI [3] greater than 100 µM and a TGI [4] greater than 100 µM. The TGI [5] was greater than 100 µM, the TGI [11] was greater than 100 µM and the TGI [8] was greater than 100 µM. The TGI [6] was greater than 100 µM.

`CC(=O)NC1=C(NCc2ccc(Cl)cc2)C(=O)c2ccccc2C1=O` showed a TGI [1] of 4.74 µM, a TGI [3] of 13.2 µM and a TGI [4] of 13 µM. It also gave a TGI [5] of 14.6 µM and a TGI [8] of 24.1 µM.

`C=CCN(CC=C)CC(C(C)=O)C(c1ccccc1)c1c(O)c2ccccc2oc1=O` (centres undefined) was tested, and the TGI [1] was greater than 100 µM, the TGI [3] was greater than 100 µM and the TGI [4] was greater than 100 µM. The TGI [5] was greater than 100 µM, the TGI [8] was greater than 100 µM and the TGI [6] was greater than 100 µM.

Work on `COc1ccccc1NC(=O)C1=C(C)NC(C)=C(C(=O)Nc2ccccc2OC)C1c1cccc2c1OCO2` yielded a TGI [3] greater than 100 µM, a TGI [4] greater than 100 µM and a TGI [5] greater than 100 µM. The TGI [7] was greater than 100 µM, the TGI [11] was greater than 100 µM and the TGI [6] was greater than 100 µM.

With `O=C(O)c1ccc(C2C3C=CC(C3)C2[N+](=O)[O-])cc1` (centres undefined) the TGI [1] was greater than 100 µM, the TGI [3] was greater than 100 µM and the TGI [4] was greater than 100 µM. The TGI [5] was greater than 100 µM, the TGI [7] was greater than 100 µM and the TGI [8] was greater than 100 µM. The TGI [6] was greater than 100 µM.

`Cc1cc2c(cc1Br)C1(C)CCC(C)C1(C)O2` (centres undefined) showed a TGI [1] of 50.6 µM, a TGI [3] greater than 100 µM and a TGI [4] greater than 100 µM. It also gave a TGI [5] of 50.4 µM, a TGI [11] greater than 100 µM and a TGI [8] greater than 100 µM. For the same molecule, the TGI [6] was 52 µM.

With `CCC[CH2][Sn]1([CH2]CCC)[O]C(=O)CN=Cc2ccccc2[O]1` the GI50 [1] was 0.137 µM, the TGI [1] was 0.282 µM and the GI50 [3] was 0.568 µM. It also gave a TGI [3] greater than 100 µM, a GI50 [4] of 0.102 µM and a TGI [4] of 0.236 µM. For the same molecule, the GI50 [5] was 0.864 µM, the TGI [5] was 2.12 µM and the GI50 [7] was 0.182 µM. It also gave a TGI [7] of 0.324 µM, a GI50 [11] of 0.337 µM and a TGI [11] of 1.36 µM. The GI50 [8] was 0.232 µM, the TGI [8] was 1.34 µM and the GI50 [6] was 0.134 µM. The TGI [6] was 0.295 µM.

In the case of `C[Si]12OCCCN(CCO1)CCO2`, the TGI [3] is reported as greater than 100 µM, the TGI [4] is reported as greater than 100 µM and the TGI [5] is reported as greater than 100 µM. For the same molecule, the TGI [8] was greater than 100 µM and the TGI [6] was greater than 100 µM.

For `CC[C@@]1(O)C(=O)OCc2c1cc1n(c2=O)Cc2cc3c(NC(=O)CN)cccc3nc2-1`, the TGI [2] was 46.7 µM.

With `COC(=O)C1=Cc2c(cc(OC)c(OC)c2OC)[C@H](c2ccc(OC)c(OC)c2OC)C1C(=O)OC` (some centres undefined) the TGI [3] was greater than 100 µM, the TGI [4] was greater than 100 µM and the TGI [5] was greater than 100 µM. It also gave a TGI [7] greater than 100 µM, a TGI [8] greater than 100 µM and a TGI [6] greater than 100 µM.

For `CC(C)=CC1CC(C)C2(CCC3(C)CC4C(C(=O)CC4(C)O)/C(C=O)=C\CC32)O1` (centres undefined), the TGI [2] was 0.258 µM.

In the case of `CNC(=O)OCc1[nH]ccc2c(C)c3nc4ccc(OC)cc4c3cc12`, the TGI [1] is reported as greater than 33.8 µM, the TGI [3] is reported as greater than 100 µM and the TGI [4] is reported as greater than 100 µM. For the same molecule, the TGI [5] was greater than 100 µM, the TGI [11] was 34.1 µM and the TGI [8] was greater than 100 µM.

Work on `O=C(CCCn1ccnc1[N+](=O)[O-])NCCn1ccnc1[N+](=O)[O-]` yielded a TGI [2] greater than 100 µM.

With `O=C(NC1(C(=O)O)CC1c1ccccc1)c1ccccc1` (centres undefined) the TGI [2] was greater than 100 µM.

Work on `CC1(C)N[P+]2(Nc3ccccc3O2)OC1=O` (centres undefined) yielded a TGI [2] of 38.7 µM.

With `CN(C)S(=O)(=O)c1ccc(Nc2ccc(O)c3c2C(=O)c2c([N+](=O)[O-])ccc(O)c2C3=O)cc1` the TGI [2] was greater than 100 µM.

`NC(=O)NCCSC1CCCCC1O` (centres undefined) gave a TGI [2] greater than 100 µM.

For `Cc1cc(N=C2C=C(Nc3cc(C)on3)C(=O)c3ccccc32)no1`, the TGI [1] was greater than 100 µM, the TGI [2] was 4.02 µM and the TGI [3] was greater than 100 µM. For the same molecule, the TGI [4] was greater than 100 µM, the TGI [5] was greater than 100 µM and the TGI [7] was greater than 100 µM. The TGI [11] was 92.2 µM, the TGI [8] was 68.1 µM and the TGI [6] was 73.7 µM.
